Test results as given in patent US20160194358A1, “LINEAR PEPTIDE ANTIBIOTCS” (priority 2013, published 2016).
≈ marks a conversion by molar mass, not a printed value. Read-outs that look alike come from different tables or passages of the source. *1 amine or outer side, *2 acyl side, *3 side chain or, on linkers, in order; H or OH if unused. Where a SMILES comes first, the peptide text is derived from it. [ ]: non-standard residue; d: D form. The star is where a group is joined. ξ: configuration not given here. boroAla((+)-pinanediol) = C[C@H](N*)B1O[C@@H]2C[C@@H]3C[C@@H](C3(C)C)[C@]2(C)O1; Benzoyl(4-(4-Cl-Ph)) = O=C(c1ccc(-c2ccc(Cl)cc2)cc1)*; ξ3Amino2oxobutanoyl = CC(N[*:1])C(=O)C(=O)[*:2]; NH(2-(2-pyridyl)ethyl) = c1ccc(CCN*)nc1; X1 = C[C@H](N[*:1])C(=O)C(=O)[*:2]; Thr(3ξ) = CC(O)[C@H](N)C(=O)O; NHPhenethyl = c1ccc(CCN*)cc1; Decanoyl = CCCCCCCCCC(=O)*; Octanoyl = CCCCCCCC(=O)*; Dab = NCC[C@H](N)C(=O)O; Dap = NC[C@H](N)C(=O)O; NHtBu = CC(C)(C)N*; βAla = NCCC(=O)O; NHcPr = C1CC1N*; NHiPr = CC(C)N*; NHBu = CCCCN*; X13 = COCCCN*

Experiments:
[1] = test system: methicillin resistant Staphylococcus aureus (MRSA) strain USA300 (NRS384); conditions: MRSA USA300 (NRS384), 35° C., 22 hours
How it was run: (§1)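 CLSI broth microdilution in cation-adjusted Mueller Hinton Broth with 0.002% Tween-80, two-fold dilutions starting at 64 μg/ml.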

[2] = test system: Escherichia coli strain MC4100 IMP-4213, which harbors an LptD mutation; conditions: E. coli MC4100 IMP-4213, 35° C., 22 hours
How it was run: as §1

E. coli SPase = biological target: T1, E. coli SPase (Escherichia coli, UniProt P00803); test: Biochemical SPase activity assay, fluorogenic peptide substrate, E. coli enzyme; conditions: 20 μM substrate, 10 minutes preincubation, read-out: IC 50 (nM) E. coli
T1 construct: Full length His-tagged E. coli SPase proteins; His; made in house; host or cells: E. coli BL21(DE3)
T1 sequence (P00803 whole entry): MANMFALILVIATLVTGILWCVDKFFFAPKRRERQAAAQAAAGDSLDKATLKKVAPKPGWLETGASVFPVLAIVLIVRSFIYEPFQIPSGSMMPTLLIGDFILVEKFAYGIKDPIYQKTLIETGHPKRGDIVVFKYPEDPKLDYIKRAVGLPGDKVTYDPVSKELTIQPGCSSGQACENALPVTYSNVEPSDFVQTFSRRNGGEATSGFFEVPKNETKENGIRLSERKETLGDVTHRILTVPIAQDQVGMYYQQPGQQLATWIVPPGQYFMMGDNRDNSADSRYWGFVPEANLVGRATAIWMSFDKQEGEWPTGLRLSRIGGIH
Protocol: Full length His-tagged E. coli SPase proteins were expressed in E. coli BL21(DE3) containing the plasmid pET23-lepB. Briefly, saturated overnight cultures grown in 20 ml of Luria-Bertani medium supplemented with ampicillin were subcultures into 1.5 L of Luria-Bertani, and shaken at 37° C. until an optical density at 600 nm of 0.4-0.5 was achieved.
(§2) Signal peptidase enzyme activity of the above proteins was measured using two fluorogenic peptide substrates (decanoyl-LSSPAYNO2A ? ADKabzPD and decanoyl-LTPTAYNO2A ? ASKKabzDD), where abz is the fluorescence donor 2-aminobenzamide, YNO2 is the fluorescence acceptor 3-nitrotyrosine, and the cleavage site is indicated with an arrow. Enzyme mix solution was prepared by diluting 2.5 nM of Escherichia coli or Staphylococcus aureus SPase protein into reaction buffers consisting of 20 mM PO4 pH 7.4, 100 mM NaCl, and 1% Elugent™ or octyl phenoxypolyethoxylethanol detergent at a concentration of 0.25% or 0.0625%. Reactions were initiated by the addition of substrate to a final concentration of 20 μM. Reaction progress was monitored by measuring the increase in fluorescence signal (excitation at 314 nm, emission at 416 nm) using a SpectraMax M2 fluorescence microplate reader. To determine IC50 values of test compounds, compound stock solutions were prepared in DMSO at a concentration of 1 mM. Three-folder serial dilutions of test compounds, starting at 10 μM, were prepared in enzyme mix solution and incubated at room temperature for 10 minutes. Following this incubation, fluorogenic substrate was added to a final concentration of 20 μM and the increase in fluorescence, corresponding to substrate cleavage, was monitored continuously at room temperature for 1 hour. Initial reaction rates were calculated based on the rate of increase in fluorescence during the reaction. Reaction rates were plotted as a function of compound concentration, and IC50 values are determined nonlinear regression analysis (SoftMaxPro 5.4, Molecular Devices™) of the sigmoidal dose-response curve.

S. aureus SPase = S. aureus SPase (Staphylococcus aureus, UniProt P0A070); test: biochemical; conditions: IC 50 (nM) S. aureus, 20 μM substrate, 10 minutes preincubation
Sequence of S. aureus SPase (P0A070 whole entry): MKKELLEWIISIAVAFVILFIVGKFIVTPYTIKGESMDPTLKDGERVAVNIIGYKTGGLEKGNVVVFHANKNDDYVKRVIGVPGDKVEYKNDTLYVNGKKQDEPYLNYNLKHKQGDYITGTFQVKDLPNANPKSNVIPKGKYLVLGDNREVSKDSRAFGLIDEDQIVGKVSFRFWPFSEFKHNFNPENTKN
Protocol: Full length His-tagged S. aureus SPase protein was expressed similarly from E. coli BL21(DE3) containing the plasmid pCDF1-SaSpsB and purified similarly to the E. coli protein with the following exceptions. SPase protein was solubilized using 300 mM NaCl, 20 mM Tris pH 8.06, 5 mM Imidazole, 10% glycerol, 1% Triton X-100, prior to purification in Ni-NTA Superflow resin and resin bound protein was washed in a similar buffer containing 1% Elugent in place of Triton X-100 prior to protein eluted in wash buffer supplemented with 300 mM imidazole. […] All protein concentrations were determined by BCA assay.
as §2

Compound | IC50 (E. coli SPase) [nM] | IC50 (S. aureus SPase) [nM] | MIC (μg/mL) S. aureus [1] [µg/mL] | MIC (μg/mL) E. coli [2] [µg/mL] | also measured
CCCCc1ccc(-c2ccc(C(=O)N[C@@H](CCN)C(=O)N[C@H](C(=O)N[C@@H](C)C(=O)N[C@@H](CCCCN)C(=O)N[C@@H](C)C(=O)C3OC3C)[C@@H](C)O)cc2)cc1 (single isomer, unassigned) [Compound 203 P2] | 1500 | 1000 |  |  | MIC (μg/mL) S. aureus ([1]; listed as 203 P2): 8 µg/mL (≈ 10.4 µM); MIC (μg/mL) E. coli ([2]; listed as 203 P2): 23 µg/mL (≈ 30 µM)
CCCCc1ccc(-c2ccc(C(=O)N[C@@H](CCN)C(=O)N[C@H](C(=O)N[C@@H](C)C(=O)N[C@@H](CCCCN)C(=O)N[C@@H](C)C(=O)C3OC3C)[C@@H](C)O)cc2)cc1 (single isomer, unassigned) [Compound 205 P1] | > 10000 | > 10000 |  |  | MIC (μg/mL) S. aureus ([1]; listed as 205 P1): >64 µg/mL; MIC (μg/mL) E. coli ([2]; listed as 205 P1): 32 µg/mL (≈ 41.8 µM)
CCCCc1ccc(-c2ccc(C(=O)N[C@@H](CCN)C(=O)N[C@H](C(=O)N[C@@H](C)C(=O)N[C@@H](CCCCN)C(=O)N[C@@H](C)C(=O)C3OC3C)[C@@H](C)O)cc2)cc1 (single isomer, unassigned) [Compound 205 P2] | > 10000 | > 10000 |  |  | MIC (μg/mL) S. aureus ([1]; listed as 205 P2): >64 µg/mL; MIC (μg/mL) E. coli ([2]; listed as 205 P2): 32 µg/mL (≈ 41.8 µM)
CCCCc1ccc(-c2ccc(C(=O)N[C@@H](CCN)C(=O)N[C@H](C(=O)N[C@@H](C)C(=O)N[C@@H](CCCCN)C(=O)N[C@@H](C)C(=O)C3(C)CO3)[C@@H](C)O)cc2)cc1 (single isomer, unassigned) [Compound 207 P1] | 1800 | 1400 |  |  | MIC (μg/mL) S. aureus ([1]; listed as 207 P1): 5.7 µg/mL (≈ 7.44 µM); MIC (μg/mL) E. coli ([2]; listed as 207 P1): 8 µg/mL (≈ 10.4 µM)
CCCCc1ccc(-c2ccc(C(=O)N[C@@H](CCN)C(=O)N[C@H](C(=O)N[C@@H](C)C(=O)N[C@@H](CCCCN)C(=O)N[C@@H](C)C(=O)C3(C)CO3)[C@@H](C)O)cc2)cc1 (single isomer, unassigned) [Compound 207 P2] | 9900 | 1300 |  |  | MIC (μg/mL) S. aureus ([1]; listed as 207 P2): 32 µg/mL (≈ 41.8 µM); MIC (μg/mL) E. coli ([2]; listed as 207 P2): 32 µg/mL (≈ 41.8 µM)
COCCCNC(=O)C(=O)[C@H](C)NC(=O)[C@H](CCCCN)NC(=O)[C@H](C)NC(=O)[C@@H](NC(=O)[C@H](CN)NC(=O)c1ccc(-c2ccc(Cl)cc2)cc1)[C@@H](C)O [Compound 101] ({Benzoyl(4-(4-Cl-Ph))}-[Dap]TAK[X1]-X13) | 870 | 1600 | >64 | >64 | 
CCNC(=O)C(=O)[C@H](C)NC(=O)[C@H](CCCCN)NC(=O)[C@H](C)NC(=O)[C@@H](NC(=O)[C@H](CN)NC(=O)c1ccc(-c2ccc(Cl)cc2)cc1)[C@@H](C)O [Compound 102] ({Benzoyl(4-(4-Cl-Ph))}-[Dap]TAK[X1]-NHEt) | 440 | 580 | 32 (≈ 42.9 µM) | >64 | 
CC(C)NC(=O)C(=O)[C@H](C)NC(=O)[C@H](CCCCN)NC(=O)[C@H](C)NC(=O)[C@@H](NC(=O)[C@H](CN)NC(=O)c1ccc(-c2ccc(Cl)cc2)cc1)[C@@H](C)O [Compound 103] ({Benzoyl(4-(4-Cl-Ph))}-[Dap]TAK[X1]-NHiPr) | 1100 | 1400 | >64 | >64 | 
C[C@H](NC(=O)[C@@H](NC(=O)[C@H](CN)NC(=O)c1ccc(-c2ccc(Cl)cc2)cc1)[C@@H](C)O)C(=O)N[C@@H](CCCCN)C(=O)N[C@@H](C)C(=O)C(=O)NCCc1ccccn1 [Compound 104] ({Benzoyl(4-(4-Cl-Ph))}-[Dap]TAK[X1]-{NH(2-(2-pyridyl)ethyl)}) | 950 | 840 | 64 (≈ 77.8 µM) | >64 | 
CCCCNC(=O)C(=O)[C@H](C)NC(=O)[C@H](CCCCN)NC(=O)[C@H](C)NC(=O)[C@@H](NC(=O)[C@H](CN)NC(=O)c1ccc(-c2ccc(Cl)cc2)cc1)[C@@H](C)O [Compound 105] ({Benzoyl(4-(4-Cl-Ph))}-[Dap]TAK[X1]-NHBu) | 900 | 1300 | 51 (≈ 65.9 µM) | 64 (≈ 82.8 µM) | 
CCCCCCCCCC(=O)NCCC(=O)N[C@@H](CCCCN)C(=O)N[C@H](C(=O)N[C@@H](C)C(=O)N[C@@H](CC(N)=O)C(=O)NC(C)C(=O)C(=O)NC)C(C)O (stereo partly drawn) [Compound 106] ({Decanoyl-βAla}-K[Thr(3ξ)]AN[ξ3Amino2oxobutanoyl]-NHMe) | 6200 | 45 | >64 | >64 | 
CCCCCCCCCC(=O)N[C@@H](CCCCN)C(=O)N[C@H](C(=O)N[C@@H](C)C(=O)N[C@@H](CC(N)=O)C(=O)NC(C)C(=O)C(=O)NC)C(C)O (stereo partly drawn) [Compound 107] (Decanoyl-K[Thr(3ξ)]AN[ξ3Amino2oxobutanoyl]-NHMe) | 3200 | 360 | >64 | >64 | 
C[C@H](NC(=O)[C@@H](NC(=O)[C@H](CN)NC(=O)c1ccc(-c2ccc(Cl)cc2)cc1)[C@@H](C)O)C(=O)N[C@@H](CCCCN)C(=O)N[C@@H](C)C(=O)C(=O)NC(C)(C)C [Compound 108] ({Benzoyl(4-(4-Cl-Ph))}-[Dap]TAK[X1]-NHtBu) | 930 | 3700 | >64 | >64 | 
C[C@H](NC(=O)[C@@H](NC(=O)[C@H](CN)NC(=O)c1ccc(-c2ccc(Cl)cc2)cc1)[C@@H](C)O)C(=O)N[C@@H](CCCCN)C(=O)N[C@@H](C)C(=O)C(=O)NC1CC1 [Compound 109] ({Benzoyl(4-(4-Cl-Ph))}-[Dap]TAK[X1]-NHcPr) | 820 | 2000 | 32 (≈ 42.3 µM) | 32 (≈ 42.3 µM) | 
C[C@H](NC(=O)[C@@H](NC(=O)[C@H](CN)NC(=O)c1ccc(-c2ccc(Cl)cc2)cc1)[C@@H](C)O)C(=O)N[C@@H](CCCCN)C(=O)N[C@@H](C)C(=O)C(=O)NCCc1ccccc1 [Compound 110] ({Benzoyl(4-(4-Cl-Ph))}-[Dap]TAK[X1]-NHPhenethyl) | 6000 | 3800 | 32 (≈ 39 µM) | 64 (≈ 77.9 µM) | 
COC(=O)CNC(=O)C(=O)[C@H](C)NC(=O)[C@H](CCCCN)NC(=O)[C@H](C)NC(=O)[C@@H](NC(=O)[C@H](CN)NC(=O)c1ccc(-c2ccc(Cl)cc2)cc1)[C@@H](C)O [Compound 111] ({Benzoyl(4-(4-Cl-Ph))}-[Dap]TAK[X1]G-OMe) | 360 | 690 | 16 (≈ 20.3 µM) | 16 (≈ 20.3 µM) | 
CC(=O)N[C@@H](CCN)C(=O)N[C@H](C(=O)N[C@@H](C)C(=O)N[C@@H](CCCCN)C(=O)N[C@@H](C)B1O[C@@H]2C[C@@H]3C[C@@H](C3(C)C)[C@]2(C)O1)[C@@H](C)O [Compound 113] (Ac-[Dab]TAK-{boroAla((+)-pinanediol)}) | 5700 | 1200 | >64 | >64 | 
CCCCCCCC(=O)N[C@@H](CCN)C(=O)N[C@H](C(=O)N[C@@H](C)C(=O)N[C@@H](CCCCN)C(=O)N[C@@H](C)B1O[C@@H]2C[C@@H]3C[C@@H](C3(C)C)[C@]2(C)O1)[C@@H](C)O [Compound 114] (Octanoyl-[Dab]TAK-{boroAla((+)-pinanediol)}) | 64 | 250 | 13 (≈ 17.3 µM) | 32 (≈ 42.7 µM) | 
